# Laboratory results: patent publication US12391671B2, “Allosteric EGFR inhibitors and methods of use thereof” (Dana-Farber Cancer Institute, Inc., priority 2019, dated 2025)
# Counter-ions that a name gives are not always drawn. Like-named read-outs stand apart in the source and are kept apart here.
# Columns and labels:
# [1] = test system: NSCLC resistant to gefitinib or erlotinib; settings: patients with NSCLC that have developed resistance to gefitinib or erlotinib; cited from earlier work
# [2] = test system: EGFR mutant L858R/T790M Ba/F3 cells; assay: Ba/F3 cell proliferation model (Cell Titer Glo), EGFR L858R/T790M; type: cell-based, murine; settings: 72 hours
# In short: (§1)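 Retrovirally transduced Ba/F3 cells exposed 72 h to compound alone or with 1 μg/mL cetuximab, triplicate points, repeated at least three times. Viability by Cell Titer Glo luminescence (ATP); curves fitted by non-linear sigmoidal dose-response regression.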
# [3] = test system: EGFR mutant L858R Ba/F3 cells; assay: Ba/F3 cell proliferation model (Cell Titer Glo), EGFR L858R; type: cell-based, murine; settings: 72 hours
# In short: as §1
# [4] = target: EGFR L858R/T790M (Homo sapiens (Human), UniProt P00533, L858R/T790M); assay: HTRF-based EGFR biochemical assay (L858R/T790M); settings: 100 μM ATP, enzyme 0.02 nM
# Sequence of EGFR L858R/T790M (P00533 25-1210 T790M/L858R): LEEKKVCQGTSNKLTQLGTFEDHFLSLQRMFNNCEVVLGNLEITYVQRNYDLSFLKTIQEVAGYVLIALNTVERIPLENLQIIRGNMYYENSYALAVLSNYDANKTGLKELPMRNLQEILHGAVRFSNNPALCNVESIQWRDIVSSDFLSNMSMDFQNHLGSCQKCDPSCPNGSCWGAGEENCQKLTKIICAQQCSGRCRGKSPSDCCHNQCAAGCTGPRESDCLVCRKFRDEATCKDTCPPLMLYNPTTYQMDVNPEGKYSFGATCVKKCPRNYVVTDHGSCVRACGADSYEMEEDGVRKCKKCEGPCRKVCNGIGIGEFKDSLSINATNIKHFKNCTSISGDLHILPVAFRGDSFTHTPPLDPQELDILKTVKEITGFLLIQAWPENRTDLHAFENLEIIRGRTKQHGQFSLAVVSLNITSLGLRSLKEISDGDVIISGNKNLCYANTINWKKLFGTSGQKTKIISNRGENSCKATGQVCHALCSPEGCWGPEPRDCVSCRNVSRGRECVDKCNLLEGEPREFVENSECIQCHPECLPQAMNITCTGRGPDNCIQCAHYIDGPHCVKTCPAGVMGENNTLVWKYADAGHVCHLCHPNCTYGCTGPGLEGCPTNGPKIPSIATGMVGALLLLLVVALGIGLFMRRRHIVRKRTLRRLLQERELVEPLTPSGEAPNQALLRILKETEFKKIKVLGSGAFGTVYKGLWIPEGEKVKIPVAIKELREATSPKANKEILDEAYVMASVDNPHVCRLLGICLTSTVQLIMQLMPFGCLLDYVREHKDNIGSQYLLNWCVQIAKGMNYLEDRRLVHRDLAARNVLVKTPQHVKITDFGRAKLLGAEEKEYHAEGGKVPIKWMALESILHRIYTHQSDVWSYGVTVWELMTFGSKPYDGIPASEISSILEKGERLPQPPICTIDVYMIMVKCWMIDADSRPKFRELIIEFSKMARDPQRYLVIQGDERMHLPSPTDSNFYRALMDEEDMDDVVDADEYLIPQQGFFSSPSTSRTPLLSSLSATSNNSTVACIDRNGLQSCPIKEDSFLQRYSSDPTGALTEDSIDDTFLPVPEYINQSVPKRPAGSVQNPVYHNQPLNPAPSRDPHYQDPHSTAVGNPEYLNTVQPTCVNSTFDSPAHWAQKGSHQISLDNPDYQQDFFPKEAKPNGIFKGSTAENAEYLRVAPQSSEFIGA
# In short: (§2)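 Mutant EGFR (L858R 0.1 nM, L858R/T790M 0.02 nM) preincubated 30 min with compounds at room temperature in HEPES pH 7.0 buffer with Mg2+/Mn2+, then reacted 20 min with 1 μM biotinylated tyrosine kinase peptide and 100 μM ATP. Phosphorylation read by HTRF (Eu-cryptate anti-phosphotyrosine/streptavidin-XL665, 665/620 nm) after EDTA quench.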
# [5] = target: EGFR L858R (Homo sapiens (Human), UniProt P00533, L858R); assay: HTRF-based EGFR biochemical assay (L858R); settings: 100 μM ATP, enzyme 0.1 nM
# Sequence of EGFR L858R (P00533 25-1210 L858R): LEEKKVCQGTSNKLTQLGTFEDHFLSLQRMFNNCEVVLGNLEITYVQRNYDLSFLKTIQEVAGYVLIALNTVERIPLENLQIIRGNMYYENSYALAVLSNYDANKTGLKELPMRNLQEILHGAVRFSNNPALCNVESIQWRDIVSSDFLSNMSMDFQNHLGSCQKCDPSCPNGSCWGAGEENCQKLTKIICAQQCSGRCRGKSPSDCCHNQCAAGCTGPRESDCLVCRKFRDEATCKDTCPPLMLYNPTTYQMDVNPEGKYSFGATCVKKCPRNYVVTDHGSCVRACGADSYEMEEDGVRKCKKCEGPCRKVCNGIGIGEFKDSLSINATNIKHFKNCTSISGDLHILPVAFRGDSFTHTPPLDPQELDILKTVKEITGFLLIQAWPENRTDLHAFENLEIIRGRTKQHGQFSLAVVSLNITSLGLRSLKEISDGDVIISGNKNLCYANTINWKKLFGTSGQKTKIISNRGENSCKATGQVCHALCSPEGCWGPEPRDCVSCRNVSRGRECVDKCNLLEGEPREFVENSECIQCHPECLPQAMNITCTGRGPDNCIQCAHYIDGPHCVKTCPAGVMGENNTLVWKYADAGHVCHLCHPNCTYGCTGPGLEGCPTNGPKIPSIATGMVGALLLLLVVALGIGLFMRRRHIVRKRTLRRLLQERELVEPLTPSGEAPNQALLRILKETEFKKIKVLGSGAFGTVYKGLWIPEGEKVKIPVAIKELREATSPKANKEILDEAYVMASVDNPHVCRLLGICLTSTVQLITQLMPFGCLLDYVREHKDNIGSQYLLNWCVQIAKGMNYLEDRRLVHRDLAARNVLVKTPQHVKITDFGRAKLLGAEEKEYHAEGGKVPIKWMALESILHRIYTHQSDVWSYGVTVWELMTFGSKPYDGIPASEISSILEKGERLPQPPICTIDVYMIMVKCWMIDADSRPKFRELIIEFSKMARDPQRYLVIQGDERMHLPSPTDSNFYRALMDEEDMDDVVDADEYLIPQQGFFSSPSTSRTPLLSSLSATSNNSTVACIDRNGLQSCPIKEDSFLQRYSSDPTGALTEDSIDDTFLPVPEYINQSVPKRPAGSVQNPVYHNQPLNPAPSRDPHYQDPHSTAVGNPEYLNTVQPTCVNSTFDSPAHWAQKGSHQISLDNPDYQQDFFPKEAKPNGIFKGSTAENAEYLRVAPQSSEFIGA
# In short: as §2
# [6] = Mus musculus, BaF3, single agent, read-out: Cell IC50 BaF3 EGFR L858R/T790M
# [7] = in combination with 1 μg/mL cetuximab, read-out: Cell IC50 BaF3 EGFR L858R/T790M (+cetux.)
# [8] = Mus musculus, BaF3, single agent, read-out: Cell IC50 BaF3 EGFR L858R
# [9] = in combination with 1 μg/mL cetuximab, read-out: Cell IC50 BaF3 EGFR L858R (+cetux.)
"IC50 [2, 6] [µM]","IC50 [2, 7] [µM]","IC50 [3, 8] [µM]",IC50 [4] [µM],IC50 [5] [µM],"IC50 [3, 9] [µM]",Compound,RR (response rate) [1]
0.31,0.02,0.69,0.001,0.003,–,"CN1CCC(c2ccc(-c3ccc4c(c3)C(=S)N(C(c3nc5ccccc5[nH]3)c3cc(F)ccc3O)C4)cc2)CC1 (centres unmarked) [Compound 078, 2-[1H-benzimidazol-2-yl-(5-fluoro-2-hydroxy-phenyl)methyl]-6-[4-(1-methyl-4-piperidyl)phenyl]isoindoline-1-thione;dihydrochloride]",–
1.32,–,1.37,0.025,> 0.1,–,"Cc1nc(C(c2cc(F)ccc2O)N2Cc3ccc(-c4ccc(C5CCN(C)CC5)cc4)cc3C2=O)[nH]c1C (centres unmarked) [Compound 087, 2-[(4,5-dimethyl-1H-imidazol-2-yl)-(5-fluoro-2-hydroxy-phenyl)methyl]-6-[4-(1-methyl-4-piperidyl)phenyl]isoindolin-1-one]",–
0.1,0.01,0.82,0.001,0.004,–,"CN1CCC(c2ccc(-c3ccc4cn(C(c5nc6ccccc6[nH]5)c5cc(F)ccc5O)nc4c3Cl)cc2)CC1 (centres unmarked) [Compound 092, 2-[1H-benzimidazol-2-yl-[7-chloro-6-[4-(1-methyl-4-piperidyl)phenyl]-indazol-2-yl]methyl]-4-fluoro-phenol; dihydrochloride]",–
0.42,–,0.78,0.003,0.011,–,"CN1CCC(c2ccc(-c3cc(F)c4cn(C(c5nc6ccccc6[nH]5)c5cc(F)ccc5O)nc4c3)cc2)CC1 (centres unmarked) [Compound 119, 2-((1H-Benzo[d]imidazol-2-yl)(4-fluoro-6-(4-(1-methylpiperidin-4-yl)phenyl)-2H-indazol-2-yl)methyl)-4-fluorophenol; trifluoroacetate]",–

# Further lines, the molecule ahead of its results:
Compound,"IC50 [2, 6] [µM]","IC50 [2, 7] [µM]","IC50 [3, 8] [µM]",IC50 [4] [µM],IC50 [5] [µM],"IC50 [3, 9] [µM]",RR (response rate) [1]
CN(C)C/C=C/C(=O)Nc1cc2c(Nc3ccc(F)c(Cl)c3)ncnc2cc1O[C@H]1CCOC1 [afatinib],–,–,–,–,–,–,less than 10%
"CN1CCC(c2ccc(-c3ccc4ncn(C(c5nc6ccccc6[nH]5)c5cc(F)ccc5O)c(=O)c4c3)cc2)CC1 (centres unmarked) [Compound 006, 3-[1H-Benzimidazol-2-yl-(5-fluoro-2-hydroxy-phenyl)methyl]-6-[4-(1-methyl-4-piperidyl)-phenyl]quinazolin-4-one;hydrochloride]",0.28,0.005,1.1,0.0005,0.002,0.06,–
"CN1CCC(c2ccc(-c3ccc4c(c3)C(=O)N(C(c3nc5ccccc5[nH]3)c3cc(F)ccc3O)C4)cc2)CC1 (centres unmarked) [Compound 024, 2-[1H-Benzimidazol-2-yl-(5-fluoro-2-hydroxy-phenyl)methyl]-6-[4-(1-methyl-4-piperidyl)phenyl]isoindolin-1-one; hydrochloride]",0.44,0.007,1.18,0.0005,0.002,0.06,–
"CN1CCC(c2ccc(-c3cc(F)c4c(=O)n(C(c5nc6ccccc6[nH]5)c5cc(F)ccc5O)ccc4c3)cc2)CC1 (centres unmarked) [Compound 070, 2-[1H-benzimidazol-2-yl-(5-fluoro-2-hydroxy-phenyl)methyl]-8-fluoro-6-[4-(1-methyl-4-piperidyl)phenyl]isoquinolin-1-one]",0.07,0.005,0.16,0.001,0.004,–,–
"COc1c(-c2ccc(C3CCN(C)CC3)cc2)ccc2ncn(C(c3nc4ccccc4[nH]3)c3cc(F)ccc3O)c(=O)c12 (centres unmarked) [Compound 077, 3-[1H-benzimidazol-2-yl-(5-fluoro-2-hydroxy-phenyl)methyl]-5-methoxy-6-[4-(1-methyl-4-piperidyl)phenyl]quinazolin-4-one;dihydrochloride]",0.45,0.05,0.91,0.002,0.002,–,–
